{
  "source": "patent US20150024008A1",
  "about": "“Methods and Compositions Involving Induced Senescent Cells for Cancer Treatment” (THE UNIVERSITY OF CHICAGO, priority 2011, published 2015)",
  "key": {"[1]": {"test_system": "MCF7 Tet-On GFP-IBD human breast cancer cell line", "test": "GFP-53BP1 IRIF persistence, senescence and growth in MCF7 Tet-On GFP-IBD cells", "assay_type": "cell-based", "conditions": "for persistence of GFP-53BP1 foci (IRIF) / accelerated senescence: combined with irradiation; for Senescence inducing condition 2 (compound concentration combined with IR) / Senescence inducing condition 1 (compound concentration combined with IR): MCF7 cell line", "method": "To examine the effect of glucose metabolism on IRIF persistence in living cells, we exploited our previously described IRIF reporter consisting of GFP fused to the 53BP1 IRIF binding domain, expressed under tetracycline-inducible control. MCF7^Tet-On GFP-IBD cells were seeded at 3×10^5 per Fluorodish (World Precision Instruments, Inc.) in high-glucose (4.5 g/L) DMEM (Invitrogen) media supplemented with 10% Tet system-approved fetal bovine serum (Clontech) and 1 μg/mL doxycycline (Sigma). Next day media was exchanged for either high-glucose (4.5 g/L) or low-glucose (1 g/L) DMEM with 10% FBS and 1 μg/mL doxycycline. […] Cells were fixed at 3 h and 24 h for IRIF imaging and at day 5 for SA-βGal staining. Images were captured on Zeiss Axiovert 200M and a Hammatsu Orca ER FireWire digital monochrome (IRIF) or Zeiss Axiocam color digital camera (SA-βGal staining) controlled by OpenLab software.\nTo investigate what step of glycolysis is critical for improvement of DNA repair we used set of well established glycolysis inhibitors including glucose transporter Glut1 inhibitor, HXKi, GAPHi, PKi, LDHi. […] Given that elevated glycolysis predispose tumor cells for therapeutic resistance similar experiment has been performed on IR resistant PANC02 mouse pancreatic and U87 human glioma cell lines."}, "[2]": {"test_system": "Nu61 head and neck squamous carcinoma xenografts", "test": "SA-βGal in Nu61 tumor xenografts", "assay_type": "in vivo, mouse", "method": "Head and neck squamous carcinomas cell line Nu61^Tet-On GFP-IBD with IRIF live imaging reporter have been developed. Female athymic nude mice underwent s.c. injection of 1×10^7 Nu61 Tet-OnGFP-IBD cells in 100 μL of PBS. Nine days later, mice received 25 mg/kg veliparib (ChemieTek) by oral gavage 48 hours before and 72 hours after a single dose of 6 Gy. […] Tumors were excised and frozen in liquid nitrogen for subsequent analysis. Frozen sections were analyzed for SA-βGal activity. The senescence-associated β-galactosidase (SA-βGal) assay was conducted as described before. Images were captured on a Zeiss Axiovert 200M and Zeiss Axiocam color digital camera controlled by OpenLab software with a ×20 objective."}, "[3]": {"test_system": "PANC02 mouse pancreatic cell line", "test": "GFP-53BP1 IRIF persistence in PANC02 Tet-On GFP-IBD cells", "assay_type": "cell-based", "conditions": "24 hours after 6 Gy", "method": "(§1) PANC02^Tet-On GFP-IBD and U87^Tet-On GFP-IBD cell lines have been developed. Cells were seeded at 3×10^5 per Fluorodish in media supplemented with 1 μg/mL doxycycline following pretreatment for 1 h with glycolysis inhibitors before 6 Gy irradiation at 48 h. Phloretin Glut1i—Glucose transporter 1 inhibitor 100 μM (Sigma), HXi—Hexokinase inhibitorII 50 μM (Calbiochem), PKi—Pyruvate kinase inhibitor oxalate 50 μM (Sigma), LDHi—Lactate dehydrogenase inhibitor, oxamate 1 mM (Sigma)."}, "[4]": {"test_system": "U87 human glioma cell line", "test": "GFP-53BP1 IRIF persistence in U87 Tet-On GFP-IBD cells", "assay_type": "cell-based", "conditions": "24 hours after 6 Gy", "method": "as §1"}, "[5]": {"conditions": "chemotherapy agent, no irradiation stated"}},
  "data": [
    {"molecule": "O=CC[C@@H](O)[C@H](O)[C@H](O)CO", "note": "[2DG, 2-deoxy-D-glucose]", "values": [
      {"measurement": "persistence of GFP-53BP1 foci (IRIF)", "setting": "[1]", "result": "induced persistence of GFP-53BP1 foci"},
      {"measurement": "SA-βGal induction in tumor", "setting": "[2]; irradiated tumor treated with 2DG and veliparib", "result": "Strongest induction of SA-βGal"},
      {"measurement": "SA-βGal positive cells in tumor", "setting": "[2]; irradiation combined with 2DG", "result": "induced numerous cells stained positive for SA-βGal"}
    ]},
    {"molecule": "Nc1nc2ccc(Cl)cc2c2nc(-c3ccco3)nn12", "note": "[CGS15943]", "values": [
      {"measurement": "Senescence inducing condition 2 (compound concentration combined with IR)", "setting": "[1]; compound + 5 Gy", "result": 0.05, "unit": "μM + 5 Gy^"}
    ]},
    {"molecule": "N[C@@H](C(=O)N[C@@H]1C(=O)N2C(C(=O)O)=C(Cl)CS[C@H]12)c1ccccc1", "note": "[Cefaclor]", "values": [
      {"measurement": "Senescence inducing condition 1 (compound concentration combined with IR)", "setting": "[1]; compound + 6 Gy", "result": 25, "unit": "μM + 6 Gy"}
    ]},
    {"molecule": "CC1=C(C(=O)O)N2C(=O)[C@@H](NC(=O)[C@H](N)c3ccccc3)[C@H]2SC1", "note": "[Cephalexin]", "values": [
      {"measurement": "Senescence inducing condition 2 (compound concentration combined with IR)", "setting": "[1]; compound + 6 Gy", "result": 10, "unit": "μM + 6 Gy"}
    ]},
    {"molecule": "N.N.[Cl][Pt][Cl]", "note": "[Cisplatin]", "values": [
      {"measurement": "persistence of GFP-53BP1 foci", "setting": "[1]; [5]", "result": "induced persistence of GFP-53BP1 foci"},
      {"measurement": "senescence and growth", "setting": "[1]; [5]", "result": "accelerated senescence and growth suppression"}
    ]},
    {"molecule": "CN(C)CCC=C1c2ccccc2COc2ccccc21", "note": "[Doxepin]", "values": [
      {"measurement": "Senescence inducing condition 2 (compound concentration combined with IR)", "setting": "[1]; compound + 5 Gy", "result": 2.5, "unit": "μM + 5 Gy"}
    ]},
    {"molecule": "O=c1[nH]cc(F)c(=O)[nH]1", "note": "[Fluorouracil (5-FU), Fluorouracil]", "values": [
      {"measurement": "accelerated senescence", "setting": "[1]", "result": "accelerates senescence"},
      {"measurement": "persistence of GFP-53BP1 foci (IRIF)", "setting": "[1]", "result": "enhances IRIF persistence"}
    ]},
    {"molecule": "CN1CCC(=C2c3ccccc3CC(=O)c3sccc32)CC1", "note": "[Ketotifen]", "values": [
      {"measurement": "Senescence inducing condition 2 (compound concentration combined with IR)", "setting": "[1]; compound + 5 Gy", "result": 5, "unit": "μM + 5 Gy"}
    ]},
    {"molecule": "COC(=O)C1=C(C)NC(C)=C(C(=O)OCC(C)C)C1c1ccccc1[N+](=O)[O-]", "note": "(stereo not shown) [Nisoldipine]", "values": [
      {"measurement": "Senescence inducing condition 2 (compound concentration combined with IR)", "setting": "[1]; compound + 6 Gy", "result": 10, "unit": "μM + 6 Gy"}
    ]},
    {"molecule": "O=C(O)C[C@H](O)C[C@H](O)/C=C/c1c(C2CC2)nc2ccccc2c1-c1ccc(F)cc1", "note": "[Pitavastatin]", "values": [
      {"measurement": "Senescence inducing condition 1 (compound concentration combined with IR)", "setting": "[1]; compound + 6 Gy", "result": 10, "unit": "μM + 6 Gy"}
    ]},
    {"molecule": "O=c1c(O)c(-c2ccc(O)c(O)c2)oc2cc(O)cc(O)c12", "note": "[Quercetin]", "values": [
      {"measurement": "Senescence inducing condition 2 (compound concentration combined with IR)", "setting": "[1]; compound + 5 Gy", "result": 2.5, "unit": "μM + 5 Gy"}
    ]},
    {"molecule": "COc1ccc(C2CNC(=O)C2)cc1OC1CCCC1", "note": "(stereo not shown) [Rolipram]", "values": [
      {"measurement": "Senescence inducing condition 1 (compound concentration combined with IR)", "setting": "[1]; compound + 6 Gy", "result": 10, "unit": "μM + 6 Gy"}
    ]},
    {"molecule": "O=C(CCCCCCC(=O)Nc1ccccc1)NO", "note": "[SAHA, suberoylanilide hydroxamic acid]", "values": [
      {"measurement": "persistence of GFP-53BP1 foci (IRIF)", "setting": "[1]", "result": "enhance radiation induced persistence of GFP-53BP1 foci"}
    ]},
    {"molecule": "CC/C(=C(\\c1ccccc1)c1ccc(OCCN(C)C)cc1)c1ccccc1", "note": "[Tamoxifen]", "values": [
      {"measurement": "accelerated senescence", "setting": "[1]", "result": "promoted accelerated senescence"},
      {"measurement": "persistence of GFP-53BP1 foci (IRIF)", "setting": "[1]", "result": "induced persistence of GFP-53BP1 foci after irradiation"}
    ]},
    {"molecule": "CN(C/C=C/C#CC(C)(C)C)Cc1cccc2ccccc12", "note": "[Terbinafine]", "values": [
      {"measurement": "Senescence inducing condition 1 (compound concentration combined with IR)", "setting": "[1]; compound + 5 Gy", "result": 2.5, "unit": "μM + 5 Gy"}
    ]},
    {"molecule": "O=c1n(CCCN2CCN(c3cccc(Cl)c3)CC2)nc2ccccn12", "note": "[Trazodone]", "values": [
      {"measurement": "Senescence inducing condition 2 (compound concentration combined with IR)", "setting": "[1]; compound + 6 Gy", "result": 10, "unit": "μM + 6 Gy"}
    ]},
    {"molecule": "CCCCCCCCCCCCCCCc1cccc(O)c1C(=O)O", "note": "[anacardic acid]", "values": [
      {"measurement": "persistence of GFP-53BP1 foci (IRIF)", "setting": "[1]", "result": "enhance radiation induced persistence of GFP-53BP1 foci"}
    ]},
    {"molecule": "c1cc(-c2cnn3cc(-c4ccc(OCCN5CCCCC5)cc4)cnc23)ccn1", "note": "[compound C]", "values": [
      {"measurement": "accelerated senescence", "setting": "[1]", "result": "promoted accelerated senescence"},
      {"measurement": "persistence of GFP-53BP1 foci (IRIF)", "setting": "[1]", "result": "induced persistence of GFP-53BP1 foci after irradiation"}
    ]},
    {"molecule": "O=C(O)C(Cl)Cl", "note": "[dichloroacetic acid (DCA), dichloroacetic acid]", "values": [
      {"measurement": "accelerated senescence", "setting": "[1]", "result": "promoted accelerated senescence"},
      {"measurement": "persistence of GFP-53BP1 foci (IRIF)", "setting": "[1]", "result": "induced persistence of GFP-53BP1 foci following irradiation"}
    ]},
    {"molecule": "CN(C)C(=N)N=C(N)N", "note": "[metformin]", "values": [
      {"measurement": "accelerated senescence", "setting": "[1]", "result": "promoted accelerated senescence"},
      {"measurement": "persistence of GFP-53BP1 foci (IRIF)", "setting": "[1]", "result": "induced persistence of GFP-53BP1 foci after irradiation"}
    ]},
    {"molecule": "O=C(CCc1ccc(O)cc1)c1c(O)cc(O)cc1O", "note": "[phloretin]", "values": [
      {"measurement": "accelerated senescence", "setting": "[1]", "result": "promoted accelerated senescence"},
      {"measurement": "persistence of GFP-53BP1 foci (IRIF)", "setting": "[1]", "result": "induced persistence of GFP-53BP1 foci following irradiation"},
      {"measurement": "IRIF persistence", "setting": "[3]", "result": "markedly increased IRIF persistence"},
      {"measurement": "IRIF persistence", "setting": "[4]", "result": "markedly increased IRIF persistence"}
    ]},
    {"molecule": "oxalate [PKi]", "values": [
      {"measurement": "IRIF persistence", "setting": "[3]", "result": "markedly increased IRIF persistence"},
      {"measurement": "IRIF persistence", "setting": "[4]", "result": "markedly increased IRIF persistence"}
    ]}
  ]
}
